Measurements: US20240299559A1, “COMPOUNDS THAT MEDIATE PROTEIN DEGRADATION AND METHODS OF USE THEREOF” (Monte Rosa Therapeutics, Inc., priority 2021, published 2024)

Columns and labels:
[1] = target: T1, CDK2 (Homo sapiens, UniProt P24941); assay: CDK2 HiBiT assay (degradation, Dmax); assay type: cell-based; conditions: HEK293 clonal lines with CRISPR KI HiBiT tag on CDK2, stably expressing LgBiT; 24 hours incubation
T1 construct: HEK293 clonal lines with CRISPR KI HiBiT tag on CDK2 proteins; host or cells: HEK293 clonal line with CRISPR knock-in HiBiT on CDK2, stably expressing LgBiT
Method: HEK293 clonal lines with CRISPR KI HiBiT tag on CDK2 proteins and stably expressing LgBiT protein were obtained from Promega (Madison, WI). Cells were plated at 5000 cells per well using Multiflo (BioTek) in 384-well white solid bottom plates (Corning, 3570BC) in 25 ul volume in DMEM media (DMEM, high glucose, HEPES, no phenol red (ThermoFisher Scientific, 21063029)) containing 10% FBS (Corning, 35-075-CV), 1% Penicillin/Streptomycin (ThermoFisher Scientific, 15140-122). Cells were incubated for 16 hours at 37° C., 5% CO2. 75 nL of a compound at 30 μM were dosed into the plate using an Echo® 650 liquid handler (Labcyte). Cells were incubated at 37° C., 5% CO2 for 24 hours. 5 ul of HiBiT Lysis Reagent (Promega, N3030) is added using Combi Multidrop (ThermoFisher Scientific), plates are incubated for 15′ at 37° C., 5% CO2 and then signal was read on a Pherastar FSX using “LUM plus” optic module.
Analysis was performed in Scinamic (Scinamic, Cambridge, MA). Luminescence response (R) was calculated by the formula: response=100*(S−N)/(P−N) where S is the signal of the well, N and P the mean negative and positive control values respectively of the same plate. The luminescence response was then fitted in Scinamic using a 3-parameter agonist logistic fit (hillslope=1, EC50>0, top/bottom unconstrained).

[2] = target: CRBN-DDB1 (Homo sapiens, UniProt Q96SW2); assay: Compound binding to CRBN by HTRF assay; conditions: CRBN-DDB1 2.5 nM, Cy5-Thalidomide 100 nM probe; Ki from geometric mean of IC50 by Cheng-Prustoff transformation
Sequence of CRBN-DDB1 (Q96SW2 whole entry): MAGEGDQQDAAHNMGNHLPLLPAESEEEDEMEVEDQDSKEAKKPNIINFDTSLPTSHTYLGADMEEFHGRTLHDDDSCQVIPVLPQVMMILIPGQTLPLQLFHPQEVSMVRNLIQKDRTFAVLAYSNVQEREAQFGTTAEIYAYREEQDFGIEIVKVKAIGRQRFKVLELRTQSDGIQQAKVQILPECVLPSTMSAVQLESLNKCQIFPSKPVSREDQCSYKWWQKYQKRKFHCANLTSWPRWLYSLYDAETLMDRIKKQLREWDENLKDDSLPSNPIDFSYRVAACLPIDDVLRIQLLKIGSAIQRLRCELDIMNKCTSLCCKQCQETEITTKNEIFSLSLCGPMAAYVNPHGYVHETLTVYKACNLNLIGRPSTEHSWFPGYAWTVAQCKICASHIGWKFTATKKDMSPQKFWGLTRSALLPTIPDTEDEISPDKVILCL
Sequence of CRBN-DDB1 (Q16531 whole entry partner): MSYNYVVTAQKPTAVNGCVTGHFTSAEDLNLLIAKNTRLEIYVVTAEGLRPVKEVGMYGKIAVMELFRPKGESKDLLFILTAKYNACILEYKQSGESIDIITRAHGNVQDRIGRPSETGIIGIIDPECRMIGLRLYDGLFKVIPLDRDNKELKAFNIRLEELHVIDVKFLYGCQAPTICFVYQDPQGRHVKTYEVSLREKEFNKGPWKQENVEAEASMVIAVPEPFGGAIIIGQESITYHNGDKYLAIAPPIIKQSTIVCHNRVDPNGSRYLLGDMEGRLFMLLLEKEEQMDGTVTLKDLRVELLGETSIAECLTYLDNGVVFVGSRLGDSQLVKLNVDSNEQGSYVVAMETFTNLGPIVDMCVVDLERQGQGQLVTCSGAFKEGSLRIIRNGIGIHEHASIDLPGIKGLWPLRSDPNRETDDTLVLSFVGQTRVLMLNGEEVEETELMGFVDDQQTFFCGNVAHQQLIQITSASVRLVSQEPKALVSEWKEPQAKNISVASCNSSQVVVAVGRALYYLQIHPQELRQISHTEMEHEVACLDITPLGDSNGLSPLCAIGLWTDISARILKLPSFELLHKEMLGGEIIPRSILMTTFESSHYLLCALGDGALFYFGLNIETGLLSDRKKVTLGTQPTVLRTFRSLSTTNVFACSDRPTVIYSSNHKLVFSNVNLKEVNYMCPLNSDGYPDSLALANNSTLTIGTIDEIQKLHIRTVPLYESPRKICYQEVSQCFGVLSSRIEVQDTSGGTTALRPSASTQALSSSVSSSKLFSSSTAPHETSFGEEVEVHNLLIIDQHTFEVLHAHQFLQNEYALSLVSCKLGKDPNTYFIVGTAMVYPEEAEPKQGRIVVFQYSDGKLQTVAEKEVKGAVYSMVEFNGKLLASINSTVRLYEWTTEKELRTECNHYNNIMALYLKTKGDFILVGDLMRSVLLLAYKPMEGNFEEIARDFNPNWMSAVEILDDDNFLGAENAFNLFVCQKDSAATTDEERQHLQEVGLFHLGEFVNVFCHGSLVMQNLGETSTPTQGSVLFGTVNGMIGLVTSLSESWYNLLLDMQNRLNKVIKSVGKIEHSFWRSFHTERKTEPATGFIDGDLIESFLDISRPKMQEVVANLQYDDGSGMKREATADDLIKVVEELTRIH
Method: Compound activity was monitored in a Homogenous Time-Resolved Fluorescence (HTRF) assay using 1-[5-({2-[2-(2-{[2-(2,6-dioxopiperidin-3-yl)-1,3-dioxo-2,3-dihydro-1H-isoindol-4-yl]oxy}acetamido)ethoxy]ethyl}carbamoyl)pentyl]-3,3-dimethyl-2-[(1E,3E)-5-[(2E)-1,3,3-trimethyl-5-sulfo-2,3-dihydro-1H-indol-2-ylidene]penta-1,3-dien-1-yl]-3H-indol-1-ium-5-sulfonate as a fluorescent probe. Biochemical assays were conducted in Greiner white 384 well HiBase plates (Cat. No 784075-25) in 10 μL total volume. A one pot detection solution of CRBN-DDB1 (2.5 nM), Anti-His Terbium Cryptate Gold (1×, PerkinElmer Cat. #: 61HI2TLB), and Cy5-Thalidomide (100 nM, Tenova Cat.: T52461) was prepared in 20 mM HEPES, 20 mM NaCl, 0.2 mM TCEP, 0.2 mM EDTA, and 0.005% Tween20 was dispensed to each assay plate. Compounds were stored in dry, ambient temperatures at 10 mM. A 10-point, 1:3 dilution series was prepared from 10 mM stock concentrations in Echo-compatible LDV plates. 10 nL of each compound dilution series was dispensed into assays wells using an Echo 650 (Labcyte inc. USA). 10 nL of 10 mM Lenalidomide was transferred into the active-control wells for the assay and 10 nL of DMSO was transferred into the neutral-control wells. The assay was then allowed to incubate for 30 min at ambient temperature after transferring compound. Plate measurements were taken on a Pherastar FSX (BMG Labtech, Germany) using the HTRF Red filter (Ex. 337 nm, em1:620 nm, em2:665 nm) (Flashes: 50, Integration time: 60-400 us, Z-height: 10 mm, Ratio-multipler: 10,000). The HTRF signal was then subsequently normalized to the neutral and active controls. Analysis and IC50 values were derived using KNIME analytics (KNIME Zurich) transformation and fitting within Collaborative Drug Discovery (Collaborative Drug Discovery USA). Ki was derived from the geometric mean of the IC50 values using the Cheng-Prustoff transformation.

Row | SMILES | Dmax [1] | Ki [2]
1 | O=C1CCC(N2Cc3ccc(COC(=O)NCc4ccc(OC5CCOCC5)nc4)cc3C2=O)C(=O)N1 (stereo not shown) [Compound 2, (2-(2,6-dioxopiperidin-3-yl)-3-oxoisoindolin-5-yl)methyl((6-((tetrahydro-2H-pyran-4-yl)oxy)pyridin-3-yl)methyl)carbamate] | 10 to 50% | 100 to 1000 nM
2 | O=C1CCC(N2Cc3ccc(CNC(=O)OCc4cccc(-c5ccc(F)cc5)n4)cc3C2=O)C(=O)N1 (stereo not shown) [Compound 4, (6-(4-fluorophenyl)pyridin-2-yl)methyl((2-(2,6-dioxopiperidin-3-yl)-3-oxoisoindolin-5-yl)methyl)carbamate] | 10 to 50% | 100 to 1000 nM
3 | O=C1CCC(N2Cc3ccc(CNC(=O)OCc4ccnc(-c5ccc(F)cc5)c4)cc3C2=O)C(=O)N1 (stereo not shown) [Compound 5, (2-(4-fluorophenyl)pyridin-4-yl)methyl((2-(2,6-dioxopiperidin-3-yl)-3-oxoisoindolin-5-yl)methyl)carbamate] | 10 to 50% | 100 to 1000 nM
4 | Cc1ccc(-c2cccc(COC(=O)NCc3ccc4c(c3)C(=O)N(C3CCC(=O)NC3=O)C4)c2)cc1 (stereo not shown) [Compound 7, (4′-methyl-[1,1′-biphenyl]-3-yl)methyl ((2-(2,6-dioxopiperidin-3-yl)-3-oxoisoindolin-5-yl)methyl)carbamate] | 10 to 50% | 100 to 1000 nM
5 | O=C1CCC(N2Cc3ccc(CNC(=O)OCc4cccc(-c5ccc(Cl)cc5)c4)cc3C2=O)C(=O)N1 (stereo not shown) [Compound 8, (4′-chloro-[1,1′-biphenyl]-3-yl)methyl ((2-(2,6-dioxopiperidin-3-yl)-3-oxoisoindolin-5-yl)methyl)carbamate] | 10 to 50% | 100 to 1000 nM
6 | O=C1CCC(N2Cc3ccc(CNC(=O)OCc4cccc(-c5ccc(C(F)(F)F)cc5)c4)cc3C2=O)C(=O)N1 (stereo not shown) [Compound 9, (4′-(trifluoromethyl)-[1,1′-biphenyl]-3-yl)methyl((2-(2,6-dioxopiperidin-3-yl)-3-oxoisoindolin-5-yl)methyl)carbamate] | 50 to 80% | 100 to 1000 nM
7 | O=C1CCC(N2Cc3ccc(CNC(=O)OCc4cccc(-c5cccc(F)c5)c4)cc3C2=O)C(=O)N1 (stereo not shown) [Compound 10, (3′-fluoro-[1,1′-biphenyl]-3-yl)methyl ((2-(2,6-dioxopiperidin-3-yl)-3-oxoisoindolin-5-yl)methyl)carbamate] | 50 to 80% | 100 to 1000 nM
8 | O=C1CCC(N2Cc3ccc(CNC(=O)OCc4cccc(-c5cccc(C(F)(F)F)c5)c4)cc3C2=O)C(=O)N1 (stereo not shown) [Compound 11, (3′-(trifluoromethyl)-[1,1′-biphenyl]-3-yl)methyl ((2-(2,6-dioxopiperidin-3-yl)-3-oxoisoindolin-5-yl)methyl)carbamate] | 50 to 80% | 100 to 1000 nM
9 | O=C1CCC(N2Cc3ccc(CNC(=O)OCc4cc(-c5ccccc5)ccn4)cc3C2=O)C(=O)N1 (stereo not shown) [Compound 14, (4-phenylpyridin-2-yl)methyl ((2-(2,6-dioxopiperidin-3-yl)-3-oxoisoindolin-5-yl)methyl)carbamate] | 10 to 50% | 100 to 1000 nM
10 | CC(NC(=O)OCc1ccc(OC2CCOCC2)nc1)c1ccc2c(c1)C(=O)N(C1CCC(=O)NC1=O)C2 (stereo not shown) [Compound 16, (6-((tetrahydro-2H-pyran-4-yl)oxy)pyridin-3-yl)methyl (1-(2-(2,6-dioxopiperidin-3-yl)-3-oxoisoindolin-5-yl)ethyl)carbamate] | 10 to 50% | 100 to 1000 nM
11 | O=C1CCC(N2Cc3ccc(CNC(=O)OCc4ccc(N5CCCC5=O)cc4)cc3C2=O)C(=O)N1 (stereo not shown) [Compound 17, 4-(2-oxopyrrolidin-1-yl)benzyl ((2-(2,6-dioxopiperidin-3-yl)-3-oxoisoindolin-5-yl)methyl)carbamate] | 10 to 50% | 100 to 1000 nM
12 | O=C1CCC(N2Cc3ccc(CNC(=O)OCc4ccc(C5CCCO5)cc4)cc3C2=O)C(=O)N1 (stereo not shown) [Compound 18] | 10 to 50% | 100 to 1000 nM
13 | O=C1CCC(N2Cc3ccc(CNC(=O)OCc4ccc([C@H]5CCC[C@@H]5O)cc4)cc3C2=O)C(=O)N1 (stereo partly drawn) [Compound 19, 4-((1R, 2S)-2-hydroxycyclopentyl) benzyl ((2-(2,6-dioxopiperidin-3-yl)-3-oxoisoindolin-5-yl)methyl)carbamate] | 10 to 50% | 100 to 1000 nM
14 | O=C1CCC(N2Cc3ccc(CNC(=O)OCc4ccccc4)cc3C2=O)C(=O)N1 (stereo not shown) [Compound 20, benzyl ((2-(2,6-dioxopiperidin-3-yl)-3-oxoisoindolin-5-yl)methyl)carbamate] | 10 to 50% | 100 to 1000 nM
15 | O=C1CCC(N2Cc3ccc(CNC(=O)OCCCc4ccccc4)cc3C2=O)C(=O)N1 (stereo not shown) [Compound 23, 3-phenylpropyl N-{[2-(2,6-dioxopiperidin-3-yl)-3-oxo-2,3-dihydro-1H-isoindol-5-yl]methyl}carbamate] | 10 to 50% | 100 to 1000 nM

Now from value to compound:

Row | Dmax [1] | Ki [2] | SMILES
16 | 10 to 50% | 100 to 1000 nM | O=C1CCC(N2Cc3ccc(CCNC(=O)OCc4ccc(OC5CCOCC5)nc4)cc3C2=O)C(=O)N1 (stereo not shown) [Compound 1, (6-((tetrahydro-2H-pyran-4-yl)oxy)pyridin-3-yl)methyl (2-(2-(2,6-dioxopiperidin-3-yl)-3-oxoisoindolin-5-yl)ethyl)carbamate]
17 | 10 to 50% | 100 to 1000 nM | O=C1CCC(N2Cc3ccc(CNC(=O)OCc4ccc(OC5CCOCC5)cc4)cc3C2=O)C(=O)N1 (stereo not shown) [Compound 3, 4-((tetrahydro-2H-pyran-4-yl)oxy)benzyl((2-(2,6-dioxopiperidin-3-yl)-3-oxoisoindolin-5-yl)methyl)carbamate]
18 | 10 to 50% | ≤ 100 nM | O=C1CCC(N2Cc3ccc(CNC(=O)OCc4cccc(-c5ccccc5)c4)cc3C2=O)C(=O)N1 (stereo not shown) [Compound 6, [1,1′-biphenyl]-3-ylmethyl ((2-(2,6-dioxopiperidin-3-yl)-3-oxoisoindolin-5-yl)methyl)carbamate]
19 | 50 to 80% | ≤ 100 nM | Cc1c(COC(=O)NCc2ccc3c(c2)C(=O)N(C2CCC(=O)NC2=O)C3)cccc1-c1ccccc1 (stereo not shown) [Compound 12, (2-methyl-[1,1′-biphenyl]-3-yl)methyl ((2-(2,6-dioxopiperidin-3-yl)-3-oxoisoindolin-5-yl)methyl)carbamate]
20 | 10 to 50% | ≤ 100 nM | O=C1CCC(N2Cc3ccc(CNC(=O)OCc4cncc(-c5ccccc5)c4)cc3C2=O)C(=O)N1 (stereo not shown) [Compound 13, (5-phenylpyridin-3-yl)methyl ((2-(2,6-dioxopiperidin-3-yl)-3-oxoisoindolin-5-yl)methyl)carbamate]
21 | 10 to 50% | ≤ 100 nM | O=C1CCC(N2Cc3ccc(CNC(=O)OCc4cccc(-c5cccnc5)c4)cc3C2=O)C(=O)N1 (stereo not shown) [Compound 15, 3-(pyridin-3-yl)benzyl ((2-(2,6-dioxopiperidin-3-yl)-3-oxoisoindolin-5-yl)methyl)carbamate]
22 | ≤ 10% | ≤ 100 nM | O=C(CCc1cccc(-c2ccc(F)cc2)c1)NCc1ccc2c(c1)C(=O)N(C1CCC(=O)NC1=O)C2 (stereo not shown) [Compound 21, N-((2-(2,6-dioxopiperidin-3-yl)-3-oxoisoindolin-5-yl)methyl)-3-(4′-fluoro-[1,1′-biphenyl]-3-yl)propanamide]
23 | 10 to 50% | ≤ 100 nM | O=C1CCC(N2Cc3ccc(CNC(=O)OCCc4ccccc4)cc3C2=O)C(=O)N1 (stereo not shown) [Compound 22, 2-phenylethyl N-{[2-(2,6-dioxopiperidin-3-yl)-3-oxo-2,3-dihydro-1H-isoindol-5-yl]methyl}carbamate]
